Columns and labels:
[1] = system: BaF3-MPL cells expressing WT or mutant LNK; experiment: JAK inhibitor growth assay of BaF3-MPL cells grown with TPO; format: cell-based; conditions: TPO 10 ng/mL, JAK inhibitor I 0.2 μM to 5 μM, FIG. 2C
Experimental: FIG. 2. LNK mutations cause dysregulated TPO-dependent growth and JAK2-STAT3/5 activation. BaF3-MPL cells were transduced with empty vector (EV), WT LNK (WT), or mutant LNK (DEL, E208Q, R392E). […] Viable cells were counted daily by staining with propidium iodide (PI) and quantitated with TruCount beads on a LSRII flow cytometer. Error bars represent the standard deviation of two replicates per sample. In Panel B, BaF3-MPL cells were stimulated with TPO (1 ng/ml) for the durations indicated, followed by measurement of JAK2, STAT3 and STAT5 activation via phospho-specific flow cytometry. […] Vertical lines denote the MFI of EV unstimulated cells for comparison. In Panel C, BaF3-MPL cells were cultured in the presence of DMSO control or concentrations of JAK inhibitor I ranging from 0.2 μM to 5 μM. Cumulative growth at four days (normalized to maximal growth for each cell line) is shown. Error bars represent the standard deviation of two replicates per sample.
BaF3-MPL cells were kindly provided by J. Tyner/B. Druker (Oregon Health and Sciences University, Portland, Oreg.) and were maintained in RPMI medium containing 10% FBS and IL-3 (1 ng/mL) (Peprotech, Rocky Hill, N.J.). […] Viable cells were counted daily by staining with propidium iodide (PI) and quantitated with TruCount beads (BD Biosciences, San Jose, Calif.) on a LSRII flow cytometer. […]

[2] = system: STAT3/5 activation (pSTAT3+/5+ subpopulation); experiment: Cytokine-stimulated STAT3/5 activation by phospho-specific flow cytometry in patient peripheral blood immature myeloid cells; format: cell-based, human; conditions: samples from LNK DEL, E208Q, JAK2 V617F, MPL W515L patients and normal donor; 5 μM for 30 minutes, then TPO 50 ng/ml or G-CSF 20 ng/ml for 15 minutes; FIG. 3A
Experimental: FIG. 3. Identification of a cytokine-responsive pSTAT3+/pSTAT5+ population in CD34+ early progenitors from patients with LNK mutations. Peripheral blood samples from patients with the LNK DEL and E208Q mutations, as well as PMF patients with the JAK2 V617F and MPL W515L mutations, were compared with normal donor. CD3-/CD66-/CD33mid immature myeloid cells are shown in Panels A-C. In Panel A, samples were pre-incubated with either DMSO or JAK inhibitor I (5 μM) for 30 minutes, and then stimulated with either TPO (50 ng/ml) or G-CSF (20 ng/ml) for 15 minutes, prior to assessment of STAT3 and STAT5 activation by phospho-specific flow cytometry. […] For Panels A and B, numbers depicted in each quadrant represent the percentage of total cells present in each quadrant gate. […] DNA was isolated from each subset, and allele-specific quantitative PCR for the DEL mutation was performed. […]
BaF3-MPL cells were starved overnight in cytokine-free media and stimulated with TPO (1 or 10 ng/mL) for time points ranging from 15 minutes to 16 hours at 37° C. […] Cells were measured on a BD LSRII flow cytometer. […] Flow cytometry data was obtained with FACSDiva software and analyzed using FlowJo (Tree Star, Ashland, Oreg.) or Cytobank according to standard procedures. […]

JAK2-STAT3/5 activation = experiment: TPO-stimulated JAK2, STAT3 and STAT5 activation by phospho-specific flow cytometry in BaF3-MPL cells; format: cell-based; conditions: BaF3-MPL cells expressing WT or mutant LNK; pre-incubated two hours with 0.2 μM to 5 μM, then TPO 10 ng/mL; FIG. 5
Experimental: FIG. 5. Activation of JAK2-STAT3/5 in BaF3-MPL cells expressing WT or mutant LNK requires JAK activity. BaF3-MPL cells expressing WT or mutant LNK were pre-incubated with DMSO or JAK inhibitor I at concentrations ranging from 0.2 μM to 5 μM for two hours prior to stimulation with TPO (10 ng/mL). JAK2, STAT3, and STAT5 activation were then measured by phospho-specific flow cytometry. Line graphs represent % maximal activation for each cell line.
BaF3-MPL cells were starved overnight in cytokine-free media and stimulated with TPO (1 or 10 ng/mL) for time points ranging from 15 minutes to 16 hours at 37° C. Peripheral blood samples were stimulated with either TPO (50 ng/ml) or G-CSF (20 ng/ml)(Peprotech, Rocky Hill, N.J.) for 15 minutes at 37° C. PBMCs were rested in RPMI with 10% FBS for one hour at 37° C. prior to cytokine stimulation. For the JAK inhibitor experiments, PBMCs were incubated with 5 μM JAK inhibitor I (EMD/Calbiochem, San Diego, Calif.) for the final 30 minutes prior to cytokine stimulation. Following cytokine stimulation, cells were fixed in paraformaldehyde (Electron Microscopy Sciences, Hatfield, Pa.). […] Cells were measured on a BD LSRII flow cytometer. […] Flow cytometry data was obtained with FACSDiva software and analyzed using FlowJo (Tree Star, Ashland, Oreg.) or Cytobank according to standard procedures. […]

Substance: JAK inhibitor I
- TPO-dependent growth (cumulative growth at four days) [1]: remained susceptible to JAK inhibition
- Effect on cytokine-responsive pSTAT3+/5+ subpopulation [2]: completely eradicated
- Inhibition of JAK2-STAT3/5 activation (JAK2-STAT3/5 activation): effectively inhibited
